Values of other authors as cited in patent US5516921A, “Thiono-lactone inhibitors of protein trafficking and uses therefor” (Ariad Pharmaceuticals, Inc., priority 1994, dated 1996).

How the values were obtained:
[1] = in vivo

Compound: C[C@H]1CCC/C=C/[C@@H]2C[C@H](O)C[C@H]2[C@H](O)/C=C/C(=O)O1 [BFA, Brefeldin A]
- biological half-life [1]: short
- time at which release of β-COP from the Golgi is complete (β-COP; complete release after BFA treatment): 1 to 2 min
- time at which release of β-COP from the Golgi occurs after treatment (β-COP; onset of release after BFA treatment): ≤ 20 s
